Source: patent US9080214B2, “Genetic markers for efficacy of iloperidone in the treatment of psychotic symptoms” (Vanda Pharmaceuticals, Inc., priority 2007, dated 2015)

Test system: individuals diagnosed with schizophrenia
Assay: Change in PANSS-GP subscale by SNP genotype, patients on iloperidone 24 mg/day b.i.d. for 28 days (MMRM)
Assay type: in vivo, human
Text: Earlier studies investigated an association between a polymorphism in the CNTF gene and iloperidone efficacy as well as associations between CYP2D6 and KCNQ1 genotypes and changes in QT interval following the administration of iloperidone. The present study involved the genotyping of DNA samples collected from 426 individuals diagnosed with schizophrenia in an attempt to identify additional SNPs associated with iloperidone efficacy. Each sample was genotyped at more than 500,000 SNP loci using the GeneChip® Human Mapping 500K Array Set (Affymetrix, Santa Clara, Calif.) and using assays developed in-house. Approximately half of the participants in the study were administered 24 mg/day of iloperidone, b.i.d., for 28 days. About 25% of the patients were administered ziprasidone. The remaining participants were administered a placebo. Three analyses of the PANSS-T were conducted. 1) A two-step approach where samples were randomly split into 2 groups of iloperidone-treated patients used to discover SNPs associated with changed in PANSS-T (Discovery phase) and a second group to confirm the 100 most significant SNPs (Confirmatory phase). 2) A one-step approach using the Last Observation Carried Forward (LOCF) PANSS-T data of all iloperidone-treated patients. For each SNP, the most parsimonious genetic model (e.g., homozygous for one allele v. all other genotypes [i.e., AA v. AB and BB], heterozygous v. homozygous [i.e., AB v. AA and BB]) was established with respect to iloperidone efficacy using a one-way analysis of variance (ANOVA). 3) A Mixed-effects Model Repeated Measures (MMRM) analysis was subsequently conducted using the best genetic model of each SNP in the MMRM model. MMRM analyses were also conducted with the PANSS subscales PANSS-P, PANSS-N, and PANSS-GP. The SNPs with a statistically significant association in all 3 analyses of PANSS-T, as well as the best of each analysis were considered significant findings and are listed below in Table 1. Results for each of these SNPs with the PANSS-T scales and with the three subscales PANSS-P, PANSS-N, and PANSS-GP are shown in Tables 2, 3, 4, and 5, respectively. […] In the present case of iloperidone efficacy, it is likely that different markers are more specifically associated with one or a few specific clinical symptoms, which is reflected in the improvement measured in separate subscales.

Compound: COc1cc(C(C)=O)ccc1OCCCN1CCC(c2noc3cc(F)ccc23)CC1 [iloperidone, 1-[4-[3-[4-(6-fluoro-1,2-benzisoxazol-3-yl)-1-piperidinyl]propoxy]-3-methoxyphenyl]ethanone]
- mean of change in PANSS-GP (SNP_A-1819750 (CREG1) genotype A_A): −8.04
- mean of change in PANSS-GP (SNP_A-1819750 (CREG1) genotype A_B* (lowest response)): −4.58
- mean of change in PANSS-GP (SNP_A-1819750 (CREG1) genotype B_B): −6.81
- mean of change in PANSS-GP (SNP_A-1819750 (CREG1) genotype nonAB** (highest response)): −7.21
- mean of change in PANSS-GP (SNP_A-1860353 (RAP1B) genotype A_A** (highest response)): −17.20
- mean of change in PANSS-GP (SNP_A-1860353 (RAP1B) genotype A_B): −5.17
- mean of change in PANSS-GP (SNP_A-1860353 (RAP1B) genotype B_B): −4.96
- mean of change in PANSS-GP (SNP_A-1860353 (RAP1B) genotype nonAA* (lowest response)): −5.00
- mean of change in PANSS-GP (SNP_A-1934663 genotype A_A): −9.38
- mean of change in PANSS-GP (SNP_A-1934663 genotype A_B): −8.80
- mean of change in PANSS-GP (SNP_A-1934663 genotype B_B* (lowest response)): −3.07
- mean of change in PANSS-GP (SNP_A-1934663 genotype nonBB** (highest response)): −8.92
- mean of change in PANSS-GP (SNP_A-1973093 (KIAA0040) genotype A_A): −6.40
- mean of change in PANSS-GP (SNP_A-1973093 (KIAA0040) genotype A_B* (lowest response)): −1.92
- mean of change in PANSS-GP (SNP_A-1973093 (KIAA0040) genotype B_B): −7.77
- mean of change in PANSS-GP (SNP_A-1973093 (KIAA0040) genotype nonAB** (highest response)): −7.51
- mean of change in PANSS-GP (SNP_A-1975928 (SLC2A9) genotype A_A): −5.82
- mean of change in PANSS-GP (SNP_A-1975928 (SLC2A9) genotype A_B): −5.39
- mean of change in PANSS-GP (SNP_A-1975928 (SLC2A9) genotype B_B* (lowest response)): 9.62
- mean of change in PANSS-GP (SNP_A-1975928 (SLC2A9) genotype nonBB** (highest response)): −5.72
- mean of change in PANSS-GP (SNP_A-1987915 (GPR126) genotype A_A): −4.63
- mean of change in PANSS-GP (SNP_A-1987915 (GPR126) genotype A_B): −4.28
- mean of change in PANSS-GP (SNP_A-1987915 (GPR126) genotype B_B** (highest response)): −7.14
- mean of change in PANSS-GP (SNP_A-1987915 (GPR126) genotype nonBB* (lowest response)): −4.36
- mean of change in PANSS-GP (SNP_A-2007721 (LOC58486) genotype A_A): −2.52
- mean of change in PANSS-GP (SNP_A-2007721 (LOC58486) genotype A_B** (highest response)): −10.51
- mean of change in PANSS-GP (SNP_A-2007721 (LOC58486) genotype B_B): −3.91
- mean of change in PANSS-GP (SNP_A-2007721 (LOC58486) genotype nonAB* (lowest response)): −3.90
- mean of change in PANSS-GP (SNP_A-2044214 (HNT) genotype A_A): −6.83
- mean of change in PANSS-GP (SNP_A-2044214 (HNT) genotype A_B* (lowest response)): −3.34
- mean of change in PANSS-GP (SNP_A-2044214 (HNT) genotype B_B): −5.68
- mean of change in PANSS-GP (SNP_A-2044214 (HNT) genotype nonAB** (highest response)): −6.43
- mean of change in PANSS-GP (SNP_A-2048427 (NPAS3) genotype A_A): −9.50
- mean of change in PANSS-GP (SNP_A-2048427 (NPAS3) genotype A_B): −9.79
- mean of change in PANSS-GP (SNP_A-2048427 (NPAS3) genotype B_B* (lowest response)): −3.44
- mean of change in PANSS-GP (SNP_A-2048427 (NPAS3) genotype nonBB** (highest response)): −9.75
- mean of change in PANSS-GP (SNP_A-2070454 (NKX2-5) genotype A_A): −3.91
- mean of change in PANSS-GP (SNP_A-2070454 (NKX2-5) genotype A_B): −4.34
- mean of change in PANSS-GP (SNP_A-2070454 (NKX2-5) genotype B_B** (highest response)): −8.12
- mean of change in PANSS-GP (SNP_A-2070454 (NKX2-5) genotype nonBB* (lowest response)): −4.20
- mean of change in PANSS-GP (SNP_A-2076797 (NUDT9P1) genotype A_A): −2.80
- mean of change in PANSS-GP (SNP_A-2076797 (NUDT9P1) genotype A_B** (highest response)): −8.23
- mean of change in PANSS-GP (SNP_A-2076797 (NUDT9P1) genotype B_B): −2.42
- mean of change in PANSS-GP (SNP_A-2076797 (NUDT9P1) genotype nonAB* (lowest response)): −2.62
- mean of change in PANSS-GP (SNP_A-2103099 (HTR1A) genotype A_A): −7.79
- mean of change in PANSS-GP (SNP_A-2103099 (HTR1A) genotype A_B* (lowest response)): −3.42
- mean of change in PANSS-GP (SNP_A-2103099 (HTR1A) genotype B_B): −6.80
- mean of change in PANSS-GP (SNP_A-2103099 (HTR1A) genotype nonAB** (highest response)): −7.16
- mean of change in PANSS-GP (SNP_A-2120958 genotype A_A): −5.90
- mean of change in PANSS-GP (SNP_A-2120958 genotype A_B): −6.13
- mean of change in PANSS-GP (SNP_A-2120958 genotype B_B* (lowest response)): 1.80
- mean of change in PANSS-GP (SNP_A-2120958 genotype nonBB** (highest response)): −5.99
- mean of change in PANSS-GP (SNP_A-2170121 (C6) genotype A_A): −3.40
- mean of change in PANSS-GP (SNP_A-2170121 (C6) genotype A_B** (highest response)): −10.21
- mean of change in PANSS-GP (SNP_A-2170121 (C6) genotype B_B): −5.25
- mean of change in PANSS-GP (SNP_A-2170121 (C6) genotype nonAB* (lowest response)): −3.57
- mean of change in PANSS-GP (SNP_A-2274533 (LZTS1) genotype A_A** (highest response)): −7.04
- mean of change in PANSS-GP (SNP_A-2274533 (LZTS1) genotype A_B): −2.16
- mean of change in PANSS-GP (SNP_A-2274533 (LZTS1) genotype B_B): −2.33
- mean of change in PANSS-GP (SNP_A-2274533 (LZTS1) genotype nonAA* (lowest response)): −2.20
- mean of change in PANSS-GP (SNP_A-2283283 (XKR4) genotype A_A* (lowest response)): −0.58
- mean of change in PANSS-GP (SNP_A-2283283 (XKR4) genotype A_B): −6.49
- mean of change in PANSS-GP (SNP_A-2283283 (XKR4) genotype B_B): −6.90
- mean of change in PANSS-GP (SNP_A-2283283 (XKR4) genotype nonAA** (highest response)): −6.66
- mean of change in PANSS-GP (SNP_A-2284243 (GRIA4) genotype A_A): −6.57
- mean of change in PANSS-GP (SNP_A-2284243 (GRIA4) genotype A_B): −6.77
- mean of change in PANSS-GP (SNP_A-2284243 (GRIA4) genotype B_B* (lowest response)): −0.77
- mean of change in PANSS-GP (SNP_A-2284243 (GRIA4) genotype nonBB** (highest response)): −6.69
- mean of change in PANSS-GP (SNP_A-4204396 (CDH13) genotype A_A): −5.87
- mean of change in PANSS-GP (SNP_A-4204396 (CDH13) genotype A_B): −5.99
- mean of change in PANSS-GP (SNP_A-4204396 (CDH13) genotype B_B* (lowest response)): 1.39
- mean of change in PANSS-GP (SNP_A-4204396 (CDH13) genotype nonBB** (highest response)): −5.91
- mean of change in PANSS-GP (SNP_A-4212785 (PPP1R3B) genotype A_A* (lowest response)): 15.61
- mean of change in PANSS-GP (SNP_A-4212785 (PPP1R3B) genotype A_B): −5.99
- mean of change in PANSS-GP (SNP_A-4212785 (PPP1R3B) genotype B_B): −5.84
- mean of change in PANSS-GP (SNP_A-4212785 (PPP1R3B) genotype nonAA** (highest response)): −5.89
- mean of change in PANSS-GP (SNP_A-4230979 (ASB3) genotype A_A): −1.74
- mean of change in PANSS-GP (SNP_A-4230979 (ASB3) genotype A_B): −3.42
- mean of change in PANSS-GP (SNP_A-4230979 (ASB3) genotype B_B** (highest response)): −8.85
- mean of change in PANSS-GP (SNP_A-4230979 (ASB3) genotype nonBB* (lowest response)): −3.07
- mean of change in PANSS-GP (SNP_A-4256833 (MLCK) genotype A_A): −7.14
- mean of change in PANSS-GP (SNP_A-4256833 (MLCK) genotype A_B* (lowest response)): −2.62
- mean of change in PANSS-GP (SNP_A-4256833 (MLCK) genotype B_B): −6.45
- mean of change in PANSS-GP (SNP_A-4256833 (MLCK) genotype nonAB** (highest response)): −6.49
- mean of change in PANSS-GP (SNP_A-4258279 (RRM1) genotype A_A): −4.64
- mean of change in PANSS-GP (SNP_A-4258279 (RRM1) genotype A_B* (lowest response)): −0.66
- mean of change in PANSS-GP (SNP_A-4258279 (RRM1) genotype B_B): −6.29
- mean of change in PANSS-GP (SNP_A-4258279 (RRM1) genotype nonAB** (highest response)): −6.27
